Measurements taken from ChEMBL document CHEMBL2151007, “Total Syntheses and Cytotoxicity of (R)- and (S)-Boehmeriasin A” (ACS Med Chem Lett, 2011).

Tests used:
MCF7 [1] = assay: Cytotoxicity against human MCF7 cells after 48 hrs by Alamar blue assay; assay type: functional, cell-based; settings: MCF7, 48 h
COLO 205 [2] = assay: Cytotoxicity against human COLO205 cells after 48 hrs by Alamar blue assay; assay type: functional, cell-based; settings: COLO 205, 48 h
MCF7 [3] = assay: Cytotoxicity against human MCF7 cells; assay type: functional
[4] = Cytotoxicity against human NCI-ADR-RES cells after 48 hrs by Alamar blue assay; assay type: functional, cell-based
COLO 205 [5] = assay: Cytotoxicity against human COLO205 cells; assay type: functional

Row | Compound | IC50 (MCF7 [1]) | IC50 (COLO 205 [2]) | GI50 (MCF7 [3]) | IC50 [4] | GI50 (COLO 205 [5])
1 | COc1ccc2c3c(c4cc(OC)c(OC)cc4c2c1)CN1CCCC[C@@H]1C3 | 43.4 nM | 4.18 nM | 13 nM | 36.7 nM | 0.8 nM
2 | COc1ccc2c3c(c4cc(OC)c(OC)cc4c2c1)CN1CCCC[C@H]1C3 | 92.7 nM | 103 nM |  | 434 nM | 
3 | CC(=O)O[C@H]1C(=O)[C@@]2(C)[C@H]([C@H](OC(=O)c3ccccc3)[C@]3(O)C[C@H](OC(=O)[C@H](O)[C@@H](NC(=O)c4ccccc4)c4ccccc4)C(C)=C1C3(C)C)[C@]1(OC(C)=O)CO[C@@H]1C[C@@H]2O [PACLITAXEL] | 1.62 nM | 3.31 nM |  | > 6400 nM | 
